# Measured values reported in ChEMBL document CHEMBL1649138, “In vitro activity of Isavuconazole against Aspergillus species and zygomycetes according to the methodology of the European Committee on Antimicrobial Susceptibility Testing” (Antimicrob Agents Chemother, 2009).
# What was measured:
# Format in all cases: functional
# Aspergillus terreus [1] = assay: Antifungal activity against amphotericin B-resistant Aspergillus terreus by EUCAST method
# Aspergillus niger [2] = assay: Antifungal activity against Aspergillus niger hyphae by EUCAST method
# Rhizopus [3] = assay: Fungicidal activity against Rhizopus
# Cunninghamella [4] = assay: Fungicidal activity against Cunninghamella
# Aspergillus niger [5] = assay: Antifungal activity against Aspergillus niger by EUCAST method
# Rhizopus [6] = assay: Antifungal activity against Rhizopus by EUCAST method
# Aspergillus fumigatus [7] = assay: Fungicidal activity against Aspergillus fumigatus
# Aspergillus terreus [8] = assay: Fungicidal activity against amphotericin B-resistant Aspergillus terreus
# Absidia [9] = assay: Antifungal activity against Absidia hyphae by EUCAST method
# Absidia [10] = assay: Antifungal activity against Absidia by EUCAST method
# Aspergillus fumigatus [11] = assay: Antifungal activity against Aspergillus fumigatus by EUCAST method
# Mucor [12] = assay: Fungicidal activity against Mucor
# Aspergillus terreus [13] = assay: Antifungal activity against amphotericin B-resistant Aspergillus terreus hyphae by EUCAST method
# Aspergillus niger [14] = assay: Fungicidal activity against Aspergillus niger
# Aspergillus fumigatus [15] = assay: Antifungal activity against Aspergillus fumigatus hyphae by EUCAST method
# Cunninghamella [16] = assay: Antifungal activity against Cunninghamella hyphae by EUCAST method
# Aspergillus flavus [17] = assay: Antifungal activity against Aspergillus flavus hyphae by EUCAST method
# Rhizopus [18] = assay: Antifungal activity against Rhizopus hyphae by EUCAST method
# Rhizomucor [19] = assay: Antifungal activity against Rhizomucor by EUCAST method
# Rhizomucor [20] = assay: Antifungal activity against Rhizomucor hyphae by EUCAST method
# Mucor [21] = assay: Antifungal activity against Mucor hyphae by EUCAST method
# Mucor [22] = assay: Antifungal activity against Mucor by EUCAST method
# Absidia [23] = assay: Fungicidal activity against Absidia
# Cunninghamella [24] = assay: Antifungal activity against Cunninghamella by EUCAST method
# Aspergillus flavus [25] = assay: Fungicidal activity against Aspergillus flavus
# Aspergillus flavus [26] = assay: Antifungal activity against Aspergillus flavus by EUCAST method
# Rhizomucor [27] = assay: Fungicidal activity against Rhizomucor
smiles,measurement,setting,value
CC[C@@H]([C@H](C)O)n1ncn(-c2ccc(N3CCN(c4ccc(OC[C@@H]5CO[C@@](Cn6cncn6)(c6ccc(F)cc6F)C5)cc4)CC3)cc2)c1=O [POSACONAZOLE],MIC,Aspergillus terreus [1],0.125 µg/mL
same,MIC50,Aspergillus terreus [1],0.125 µg/mL
same,MIC90,Aspergillus terreus [1],0.5 µg/mL
same,MIC,Aspergillus niger [2],1 µg/mL
same,MIC90,Aspergillus niger [2],1 µg/mL
same,MIC90,Rhizopus [3],> 8 µg/mL
same,MIC,Cunninghamella [4],> 8 µg/mL
same,MIC90,Cunninghamella [4],8 µg/mL
same,MIC,Aspergillus niger [5],0.25 µg/mL
same,MIC50,Aspergillus niger [5],0.25 µg/mL
same,MIC90,Aspergillus niger [5],0.5 µg/mL
same,MIC50,Rhizopus [6],2 µg/mL
same,MIC90,Rhizopus [6],4 µg/mL
same,MIC90,Aspergillus fumigatus [7],2 µg/mL
same,MIC90,Aspergillus terreus [8],2 µg/mL
same,MIC,Absidia [9],4 µg/mL
same,MIC90,Absidia [9],4 µg/mL
same,MIC,Absidia [10],0.5 µg/mL
same,MIC50,Absidia [10],0.5 µg/mL
same,MIC90,Absidia [10],1 µg/mL
same,MIC50,Aspergillus fumigatus [11],0.5 µg/mL
same,MIC90,Aspergillus fumigatus [11],1 µg/mL
same,MIC90,Mucor [12],> 8 µg/mL
same,MIC90,Aspergillus terreus [13],1 µg/mL
same,MIC90,Aspergillus niger [14],4 µg/mL
same,MIC90,Aspergillus fumigatus [15],0.5 µg/mL
same,MIC90,Cunninghamella [16],8 µg/mL
same,MIC90,Aspergillus flavus [17],1 µg/mL
same,MIC90,Rhizopus [18],> 8 µg/mL
same,MIC,Rhizomucor [19],1 µg/mL
same,MIC50,Rhizomucor [19],1 µg/mL
same,MIC90,Rhizomucor [19],4 µg/mL
same,MIC90,Rhizomucor [20],8 µg/mL
same,MIC90,Mucor [21],> 8 µg/mL
same,MIC50,Mucor [22],1 µg/mL
same,MIC90,Mucor [22],1 µg/mL
same,MIC,Absidia [23],4 µg/mL
same,MIC90,Absidia [23],4 µg/mL
same,MIC,Cunninghamella [24],1 µg/mL
same,MIC50,Cunninghamella [24],1 µg/mL
same,MIC90,Cunninghamella [24],1 µg/mL
same,MIC90,Aspergillus flavus [25],2 µg/mL
same,MIC50,Aspergillus flavus [26],0.125 µg/mL
same,MIC90,Aspergillus flavus [26],0.5 µg/mL
same,MIC90,Rhizomucor [27],> 8 µg/mL
C[C@@H](c1ncncc1F)[C@](O)(Cn1cncn1)c1ccc(F)cc1F [VORICONAZOLE],MIC50,Aspergillus terreus [1],0.5 µg/mL
same,MIC90,Aspergillus terreus [1],2 µg/mL
same,MIC90,Aspergillus niger [2],4 µg/mL
same,MIC,Rhizopus [3],> 8 µg/mL
same,MIC90,Rhizopus [3],> 8 µg/mL
same,MIC,Cunninghamella [4],> 8 µg/mL
same,MIC90,Cunninghamella [4],> 8 µg/mL
same,MIC50,Aspergillus niger [5],2 µg/mL
same,MIC90,Aspergillus niger [5],2 µg/mL
same,MIC,Rhizopus [6],> 8 µg/mL
same,MIC50,Rhizopus [6],> 8 µg/mL
same,MIC90,Rhizopus [6],> 8 µg/mL
same,MIC90,Aspergillus fumigatus [7],4 µg/mL
same,MIC90,Aspergillus terreus [8],2 µg/mL
same,MIC,Absidia [9],> 8 µg/mL
same,MIC90,Absidia [9],> 8 µg/mL
same,MIC,Absidia [10],> 8 µg/mL
same,MIC50,Absidia [10],> 8 µg/mL
same,MIC90,Absidia [10],> 8 µg/mL
same,MIC50,Aspergillus fumigatus [11],1 µg/mL
same,MIC90,Aspergillus fumigatus [11],1 µg/mL
same,MIC,Mucor [12],> 8 µg/mL
same,MIC90,Mucor [12],> 8 µg/mL
same,MIC90,Aspergillus terreus [13],1 µg/mL
same,MIC90,Aspergillus niger [14],8 µg/mL
same,MIC90,Aspergillus fumigatus [15],1 µg/mL
same,MIC,Cunninghamella [16],> 8 µg/mL
same,MIC90,Cunninghamella [16],> 8 µg/mL
same,MIC90,Aspergillus flavus [17],2 µg/mL
same,MIC,Rhizopus [18],> 8 µg/mL
same,MIC90,Rhizopus [18],> 8 µg/mL
same,MIC,Rhizomucor [19],> 8 µg/mL
same,MIC50,Rhizomucor [19],> 8 µg/mL
same,MIC90,Rhizomucor [19],> 8 µg/mL
same,MIC,Rhizomucor [20],> 8 µg/mL
same,MIC90,Rhizomucor [20],> 8 µg/mL
same,MIC,Mucor [21],> 8 µg/mL
same,MIC90,Mucor [21],> 8 µg/mL
same,MIC,Mucor [22],> 8 µg/mL
same,MIC50,Mucor [22],> 8 µg/mL
same,MIC90,Mucor [22],> 8 µg/mL
same,MIC,Absidia [23],> 8 µg/mL
same,MIC90,Absidia [23],> 8 µg/mL
same,MIC,Cunninghamella [24],> 8 µg/mL
same,MIC50,Cunninghamella [24],> 8 µg/mL
same,MIC90,Cunninghamella [24],> 8 µg/mL
same,MIC90,Aspergillus flavus [25],4 µg/mL
same,MIC50,Aspergillus flavus [26],1 µg/mL
same,MIC90,Aspergillus flavus [26],1 µg/mL
same,MIC,Rhizomucor [27],> 8 µg/mL
same,MIC90,Rhizomucor [27],> 8 µg/mL
